Results as given in patent US5789188A, “Tetracycline-efflux pump inhibitor screening methods” (priority 1996, dated 1998).
Values after ≈ are worked out from the molar mass of the structure shown. “Also recorded” adds a separate entry of the source. Non-standard residues stand in square brackets, D forms with d. Residues, ends and D or L forms follow the SMILES beside them. Orn(N5-OH,N5-Ac) = CC(=O)N(O)CCC[C@H](N)C(=O)O

Assays:
strain KB3ind [1] = type: cell-based, E. coli; settings: for response in the Tetracycline Assay (β-galactosidase induction): strain KB3ind, plate assay (plate or liquid assay)
Method: (§1) To detect tetracyclines, a plate assay is developed that is similar to one described previously (11). Cells are grown in Luria Broth (adjusted with NaOH to pH 7.5) with 25 μg/ml of kanamycin to a cell density of 0.5 absorbance units (600 nm). A 25 ml sample of the culture is harvested by centrifugation and resuspended in 1 ml of broth. The cells are mixed with 25 ml of soft agar (1%, wt/vol) and poured onto 100 ml of LB (pH 7.5)+ kanamycin, within a 22 cm^2 NUNC plate (Corning). Samples are applied by spotting from 2 to 15 μl, or by applying a disc impregnated with a compound, and the plate is incubated for 3-4 hours at 37° C. The plates are overlaid with a solution containing 13.5 mg of 6-bromo-2-naphthyl-β-D-galactopyranoside side and 86.5 mg of fast blue RR (Sigma) dissolved in 2 ml of dimethylsulfoxide, to which 25 ml of soft agar is added. β-Galactosidase is detected by the presence of a purple spot.

[2] = system: tetracycline efflux pump (strain KB4 or KB5); test: Inhibition Assay, plate assay (agar with 5 ng/ml of tetracycline); on Inhibition Assay response: key: ±: Possible positive; +: Weak positive; ++: Stronger positive; -: Negative; type: cell-based, E. coli; settings: for response in the Inhibition Assay: 5 ng/ml of tetracycline
Method: as §1
Two assays are developed for detecting inhibitors of the tetA gene product (using strain KB5), or the tetK gene product (using strain KB4). In the Inhibition Assay, cells of strain KB4 or KB5 are treated as described in the tetracycline screen above, except that the agar medium contains 5 ng/ml of tetracycline. Alternatively a Liquid Assay is also developed. Cells are first grown in LB (pH 7.5). Then cells are shifted to medium containing 5 ng/ml of tetracycline, and tetracycline-containing samples are added to aliquots. Cells are then incubated and assayed as described for the Tetracycline Assay. […] However, the intracellular concentration is reduced in tetracycline resistant strains due to the action of the efflux pump, so more tetracycline would be required in the medium to accumulate sufficient tetracycline inside the cell to induce. The Inhibition Assay is designed to detect compounds that cause β-galactosidase induction in the presence of sub-inducing levels of tetracycline for a resistant strain.

strain KB4 or KB5 [3] = test: Synergy Assay, plate assay (agar with 5 μg/ml of tetracycline); type: cell-based, E. coli; settings: for response in the Synergy Assay: 5 μg/ml of tetracycline
Method: Two types of assays for pump inhibitors are designed using this type of screening organism. The first is a Synergy Assay, which determines the ability of a compound or composition to kill the organism in combination with tetracycline. […] In brief, in a Synergy Assay, the screening cells are treated as described above for the tetracycline assay, except that the agar medium contains 5 μg/ml of tetracycline which is near the MIC for the strains to be used in the screen. […] Alternatively, cells are treated as described above for the tetracycline liquid assay, except that cells are shifted to a medium containing 5 μg/ml of tetracycline.
(§2) In the Synergy Assay, cells are treated as above for the plate assay, except that agar medium contains 5 μg/ml of tetracycline, near the MIC for strain KB4 or KB5. […] Alternatively, cells are treated as above for the liquid assay, except that cells are shifted to medium containing 5 μg/ml of tetracycline.

strain KB4 or KB5 [4] = test: Synergy Assay, liquid assay (5 μg/ml of tetracycline); type: cell-based, E. coli; settings: liquid culture
Method: Inhibitory activity is assayed in liquid culture by growing strain KB4 in medium lacking tetracycline and then transferring to medium containing 5 ng/ml of tetracycline, a sub-inducing level of tetracycline due to the action of the efflux pump. Nocardamine is also added as indicated. After 4 generations of growth, the specific activity of β-galactosidase is determined in Miller Units (10). […] Alternatively, aliquots of KB4 are transferred to a medium containing 5 μg/ml of tetracycline and the nocardamine concentration indicated.
as §2

[5] = system: Tn10 derivative of strain KB3ind; test: Growth in LB medium with nocardamine, Tn10 strain; type: cell-based, E. coli; settings: for effect on growth in combination with tetracycline: Tn10 strain, 20 μg/ml or 25 μg/ml of tetracycline; for effect on growth, tetracycline absent: no tetracycline in medium
Method: (§3) Cells are grown in LB medium lacking tetracycline, as described in the text, and then aliquots are added to medium containing no tetracycline, or a sub-inhibitory concentration for the particular strain. Nocardamine (μg/ml) is present or absent as indicated.

strain KB4 = test: Growth in LB medium with nocardamine, strain KB4; type: cell-based, E. coli; settings: strain KB4, 5 μg/ml of tetracycline
Method: as §3

strain KB3ind [6] = test: Growth in LB medium with nocardamine, strain KB3ind; type: cell-based, E. coli; settings: tetracycline-sensitive strain KB3ind, 0.5 μg/ml of tetracycline
Method: FIG. 10 (Parts A, B and C) illustrates the effect of nocardamine on the growth of tetracycline sensitive and resistant cells. Cells are grown in LB medium lacking tetracycline, as described in the text, and then aliquots are added to medium containing no tetracycline, or a sub-inhibitory concentration for the particular strain. Nocardamine (μg/ml) is present or absent as indicated. For strain KB3ind, the tetracycline-sensitive strain, the sub-inhibitory concentration of tetracycline is 0.5 μg/ml. For the Tn10 derivative of strain KB3ind, 20 μg/ml of tetracycline is the sub-inhibitory level. For strain KB4, the modestly tetracycline-resistant organism, 5 μg/ml of tetracycline is the sub-inhibitory concentration.

[7] = system: E. coli MC1061 containing pCBSal; test: MIC (LD 90) of maximally induced tetA (plasmid pCBSal); type: cell-based; settings: Escherichia coli, read-out: MIC (LD 90) of Maximally Induced tetA, pCBSal
Method: (§4) E. coli MC1061 containing either pGG57, pCBSal or pGG75 were used to determine the MIC (LD 90) for tetracycline as well as six tetracycline analogs. […] MIC studies were performed in the presence of 0.01 mM IPTG for E. coli MC1061 containing pGG57. […] All of these MIC studies were done in duplicate.

[8] = system: E. coli MC1061 containing pGG57; test: microbe, parasite or virus in culture; type: cell-based; settings: Escherichia coli, read-out: MIC (LD 90) of Maximally Induced tetK, pGG57
Method: as §4

[9] = system: E. coli MC1061 containing pGG75; test: MIC (LD 90) of maximally induced tetC (plasmid pGG75); type: cell-based; settings: Escherichia coli, read-out: MIC (LD 90) of Maximally Induced tetC, pGG75
Method: as §4

NK5031 (λStet158-50) = test: Plate assay with control strain containing the cI wild type allele; type: cell-based, E. coli; settings: 3 μl samples, up to 22.5 ng bleomycin, 150 ng mitomycin C or cinodine
Wherever Induction Assay response is given: key: ±: Possible positive; +: Weak positive; ++: Stronger positive; -: Negative.

| Compound | response in the Tetracycline Assay (β-galactosidase induction) (strain KB3ind [1]) | response in the Inhibition Assay ([2]; plate assay) | response in the Synergy Assay (strain KB4 or KB5 [3]) | MIC [7] [µg/mL] | MIC [8] [µg/mL] | MIC [9] [µg/mL] | further results |
| --- | --- | --- | --- | --- | --- | --- | --- |
| O=C1CCC(=O)N(O)CCCCCNC(=O)CCC(=O)N(O)CCCCCNC(=O)CCC(=O)N(O)CCCCCN1 [nocardamine] | no response | induction | differential growth inhibition |  |  |  | response in the Inhibition Assay ([2]; plate assay, listed as Nocardamine): detected; amount sufficient to detect activity in the Inhibition Assay ([2]; plate assay, strains KB4 and KB5): One; response in the Synergy Assay (strain KB4 or KB5 [3]; listed as Nocardamine): detected; amount sufficient to detect activity in the Synergy Assay (strain KB4 or KB5 [3]; strains KB4 and KB5): One; effect on β-galactosidase production / growth (strain KB4 or KB5 [4]): marked decrease in β-galactosidase; also recorded: growth inhibition; effect on growth in combination with tetracycline [5]: severe growth inhibition; also recorded: inhibits growth; effect on growth in combination with tetracycline ([5]; listed as Nocardamine): inhibits the growth; effect on growth, tetracycline absent [5]: little or no effect; effect on growth, tetracycline absent ([5]; listed as Nocardamine): little effect; effect on growth in combination with tetracycline (strain KB4): severe growth inhibition; effect on growth in combination with tetracycline (strain KB3ind [6]): affects the growth; also recorded: is affected |
| Cc1c2c(c(O)c3c(O)cccc13)C(=O)C1(O)C(O)=C(C(N)=O)C(=O)C(N(C)C)C1C2 (centres unmarked) [AnhydroTc] |  |  |  | 3 (≈ 7.04 µM) | 2 (≈ 4.69 µM) | 2 (≈ 4.69 µM) |  |
| CN(C)c1ccc(O)c2c1C[C@H]1C[C@H]3[C@H](N(C)C)C(O)=C(C(N)=O)C(=O)[C@@]3(O)C(O)=C1C2=O [Minocycline] | capable of detecting |  |  | 14 (≈ 30.6 µM) | 4 (≈ 8.74 µM) | 8 (≈ 17.5 µM) |  |
| bleomycin | No β-galactosidase is detected |  |  |  |  |  | β-galactosidase induction in control strain (cI wild type allele) (NK5031 (λStet158-50)): inducing β-galactosidase |
| CN(C)[C@@H]1C(=O)C(C(N)=O)=C(O)[C@@]2(O)C(=O)C3=C(O)c4c(O)cccc4C[C@H]3C[C@@H]12 [6-demethyl 6-deoxyTc, 6-demethyl-6-deoxytetracycline] | capable of detecting |  |  | 20 (≈ 48.3 µM) | 7 (≈ 16.9 µM) | 20 (≈ 48.3 µM) |  |
| CO[C@@]12[C@H](COC(N)=O)C3=C(C(=O)C(C)=C(N)C3=O)N1C[C@@H]1N[C@@H]12 [Mitomycin] | No β-galactosidase is detected |  |  |  |  |  | Induction Assay response (strain KB3ind [1]): -; Inhibition Assay response ([2]; disc on assay plate): -; β-galactosidase induction in control strain (cI wild type allele) (NK5031 (λStet158-50)): inducing β-galactosidase |
| CN(C)[C@@H]1C(O)=C(C(N)=O)C(=O)[C@@]2(O)C(O)=C3C(=O)c4c(O)ccc(Cl)c4[C@@](C)(O)[C@H]3C[C@@H]12 [ChlorTc, chlortetracycline] | capable of detecting |  |  | 50 (≈ 104 µM) | 40 (≈ 83.5 µM) | 40 (≈ 83.5 µM) |  |
| C/C(=C/C(=O)N([O-])CCCC1NC(=O)CNC(=O)C(CO)NC(=O)C(CO)NC(=O)C(CCCN([O-])C(=O)/C=C(/C)CC(=O)O)NC(=O)C(CCCN([O-])C(=O)/C=C(\C)CC(=O)O)NC1=O)CC(=O)O.[Fe+3] (centres unmarked) [ferrichromeA] |  | test positive | test positive |  |  |  |  |
| C[C@H]1c2cccc(O)c2C(O)=C2C(=O)[C@]3(O)C(O)=C(C(N)=O)C(=O)[C@@H](N(C)C)[C@@H]3[C@@H](O)[C@@H]21 [DoxyTc, doxycycline] | capable of detecting |  |  | 40 (≈ 90 µM) | 7 (≈ 15.8 µM) | 20 (≈ 45 µM) |  |
| CCCCc1ccc(C(=O)O)nc1 [fusaric acid] |  | do not test positive | do not test positive |  |  |  |  |
| CN(C)C1C(=O)C(C(N)=O)=C(O)C2(O)C(=O)C3=C(O)c4c(O)cccc4C(C)(O)C3C(O)C12 (centres unmarked) [oxyTc] |  |  |  | > 300 | 250 (≈ 543 µM) | 300 (≈ 652 µM) |  |
| cinodine | No β-galactosidase is detected |  |  |  |  |  | β-galactosidase induction in control strain (cI wild type allele) (NK5031 (λStet158-50)): inducing β-galactosidase |
| CC(=O)N([O-])CCC[C@@H]1NC(=O)CNC(=O)CNC(=O)CNC(=O)[C@H](CCCN([O-])C(C)=O)NC(=O)[C@H](CCCN([O-])C(C)=O)NC1=O.[Fe+3] [ferrichrome] (cyclo(GGG[Orn(N5-OH,N5-Ac)][Orn(N5-OH,N5-Ac)][Orn(N5-OH,N5-Ac)])) |  | test positive | test positive |  |  |  |  |
